{"source": "patent US20260001949A1", "about": "“NEUTRALIZATION OF ACYL-COA BINDING PROTEIN FOR THE TREATMENT OF CARDIAC DYSFUNCTION” (INSERM (INSTITUT NATIONAL DE LA SANTÉ ET DE LA RECHERCHE …, priority 2022, published 2026)", "key": {"[1]": {"tested_on": "doxorubicin (DOX)-treated C57Bl/6J female mice", "experiment": "Anthracycline (doxorubicin)-induced cardiotoxicity model, echocardiography and organ weights", "assay_type": "in vivo", "conditions": "chronic DOX, cumulative dose 20 mg/kg body weight IP over 4 weeks, vs saline", "description": "Cardiac toxicity experiments: Eight-week-old C57Bl/6J female mice were purchased from Envigo (Gannat, France). Following 2 weeks of acclimatization, mice were randomized (1:1) to receive either mouse monoclonal anti-ACBP-neutralizing antibody (5 mg/kg body weight, injected intraperitoneally once per week) or mouse isotype IgG (negative control; 5 mg/kg body weight). Each group was further randomized (1:1) to receive a weekly intraperitoneal injection of saline or doxorubicin (5 mg/kg body weight; cumulative dose of 20 mg/kg body weight over 4 weeks) (Sigma, #MKCM8540). Of note, anti-ACBP was always administered 24 hours prior to doxorubicin injection. All mice used in this study were housed in a temperature-controlled environment with 12 h light/dark cycles and ad libitum access to food and water.\nEchocardiography. Mice were lightly anesthetized (5% for induction; 1.5% isoflurane for maintenance) and body temperature was kept at 37° C. using a temperature-controlled heating platform. […] Ejection fraction was determined to assess systolic function, while diastolic function was evaluated using the ratio between peak early-filling velocity of transmitral flow (E) and the corresponding mitral valve annulus velocity (e′) determined using pulsed-wave and tissue Doppler imaging, respectively. […]"}, "p21": {"tested_on": "p21", "experiment": "Immunostaining of senescence marker p21 in cardiac sections of doxorubicin-treated mice", "assay_type": "in vivo", "conditions": "DOX cumulative 20 mg/kg over 4 weeks; vs saline; FIGS. 2A-2B", "description": "Immunohistochemistry of p21: On the day of euthanasia, left ventricles were briefly rinsed with PBS and fixed for 16-24 h in a 4% formaldehyde solution (F8775, Sigma, diluted in PBS, pH=7.4). After fixation, tissues were transferred to 70% ethanol until inclusion in paraffin. Paraffin-embedded tissue were cut to 2-3 μm sections, air dried and let to dry completely at 60° C. overnight. Cell Conditioning 1 buffer (64/457,5001, Roche) was used for antigen retrieval, and casein (ref: 760-219, Roche) was used as blocking agent. The antibody directed against p21 (clone HUGO 291H/B5, CNIO) was diluted 1:50 in EnVision FLEX Antibody Diluent (K800621, Dako-Agilent). Staining was performed on the Ventana discovery XT platform for 60 minutes (ready-to-use). […] The specificity of the staining was assessed in each organ by using rat IgG isotype control (6-001-F, R&D Systems) as primary antibody.\nQuantification of the p21 staining was done on the QuPath analysis software after blinding the samples names. […] Non-cardiomyocytes regions were excluded from the area of analysis and, after color deconvolution, a threshold was applied to automatically quantify the p21+ cardiomyocytes area. The average value in the 10 regions of interest was plotted for each animal, and analyzed by two-way ANOVA to determine the effect of doxorubicin treatment, ACBP/DBI neutralization, and their interaction."}}, "data": [{"smiles": "COc1cccc2c1C(=O)c1c(O)c3c(c(O)c1C2=O)C[C@@](O)(C(=O)CO)C[C@@H]3O[C@H]1C[C@H](N)[C@H](O)[C@H](C)O1", "note": "[DOX, doxorubicin]", "values": [{"measurement": "left ventricular ejection fraction", "setting": "[1]; FIG. 1B", "value": "clearly reduced"}, {"measurement": "ventricular dilation", "setting": "[1]; FIG. 1C", "value": "causing ventricular dilation"}, {"measurement": "p21 staining in cardiomyocytes", "setting": "p21", "value": "increased the presence of p21 staining"}]}]}
